{"source": "patent US5070187A", "about": "“Pharmacologically effective antagonists of arginine-vasopressin” (priority 1989, dated 1991)", "origin": "cited, not measured here", "conditions": "in vivo"}
{"substance": "[8-arginine]-vasopressin", "values": [{"measurement": "urinary clearance relative to that occurring elsewhere in the body", "result": "less than 5%"}]}
